In BindingDB's records for doi:10.1021/jm0704550 (Cnrs, 2007):

Target: Growth hormone secretagogue receptor type 1 (Homo sapiens, UniProt Q92847)
Experiment: Receptor Binding Studies

Chain of Growth hormone secretagogue receptor type 1 (Q92847 whole entry): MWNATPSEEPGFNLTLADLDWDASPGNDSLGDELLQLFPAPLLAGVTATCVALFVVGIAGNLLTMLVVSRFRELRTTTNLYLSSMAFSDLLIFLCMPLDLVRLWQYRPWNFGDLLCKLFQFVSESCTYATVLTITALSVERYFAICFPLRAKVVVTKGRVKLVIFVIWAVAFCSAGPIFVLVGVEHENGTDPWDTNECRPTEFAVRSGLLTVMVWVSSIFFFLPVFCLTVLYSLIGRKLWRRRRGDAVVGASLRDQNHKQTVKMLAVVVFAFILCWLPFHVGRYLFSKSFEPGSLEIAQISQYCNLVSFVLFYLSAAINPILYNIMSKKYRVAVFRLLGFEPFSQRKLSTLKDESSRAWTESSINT

EC50 [nM] | Compound
1.6 | COc1ccc(Cn2c(CCc3ccccc3)nnc2[C@@H](Cc2c[nH]c3ccccc23)NC(=O)C2CCNCC2)cc1 [N-[(1R)-2-(1H-indol-3-yl)-1-{4-[(4-methoxyphenyl)methyl]-5-(2-phenylethyl)-4H-1,2,4-triazol-3-yl}ethyl]piperidine-4-carboxamide]
8.7 | COc1ccc(Cn2c(CCc3c[nH]c4ccccc34)nnc2[C@@H](Cc2c[nH]c3ccccc23)NC(=O)C2CNCCN2)cc1 (stereo partly drawn) [N-[(1R)-2-(1H-indol-3-yl)-1-{5-[2-(1H-indol-3-yl)ethyl]-4-[(4-methoxyphenyl)methyl]-4H-1,2,4-triazol-3-yl}ethyl]piperazine-2-carboxamide]
